Reference: patent publication US20020146441A1, “Selection method for cosmetic auxiliaries” (priority 2000, published 2002)

Columns and labels:
[1] = O/W emulsion, substantivity on skin model (water resistance, watering test); assay type: physicochemical, sheep; conditions: amount found after 20 min watering relative to unwatered sample, isopropanol extract, GC, converted to the logarithm
Method: (§1) The amounts of the cosmetic auxiliaries found in the phase to be cared for are compared with the amount found in the cosmetic phase (relative partition parameters). These values are converted to the logarithm and entered as activity values into the regression table (Table 1). Using various methods, regression against the COSMO-RS and other descriptors (e.g. clogP and boiling point) are carried out, and the best correlation according to the validation is selected. In all of the regression equations belonging to the examples, cosmetic auxiliaries with a deviation in the regression of more than +/−0.43 log units from the experimental value are defined as outliers. […] In the next step, the COSMO-RS regression equation is linked to the regression table which contains all descriptors for all cosmetic auxiliaries. The use of the COSMO-RS regression equation on all cosmetic auxiliaries gives the prediction for the logarithmic relative partition parameters for all cosmetic auxiliaries. These values are then used for the manufacture of cosmetic products. The procedure is analogous in all examples.
(§2) The example reflects the substantivity of a sunscreen emulsion. The emulsion is applied to a skin model (sheep shorn wool, because of the content of wool grease), and the substantivity thereto is tested using a watering test. The emulsion is prepared in the generally customary manner. The UV filters and a mixture of 39 odorants are incorporated in accordance with the formulations. 0.10 g of this emulsion is applied to a section of the skin model 5×10 cm in size. After drying for 30 min, the sample is stirred for 20 min in 4.5 l of water at room temperature. The sample is left to dry for 12 hours and then boiled for 10 min with 60 ml of isopropanol in a closed system. The extract is transferred to a measuring flask and made up to 100 ml. 0.10 g of the emulsion is applied to another section of the skin model. After drying for 12 hours, it is extracted with isopropanol as above. The extracts are injected in equal amounts one after the other into a GC injector, and gas chromatograms are recorded. The amounts of the UV filters and odorants found in the extracts are compared with one another (relative partition parameters). The analytical results are then used mathematically as described above.

[2] = W/O emulsion, substantivity on skin model (water resistance, watering test); assay type: physicochemical, sheep; conditions: amount found after 20 min watering relative to unwatered sample, isopropanol extract, GC, converted to the logarithm
Method: as §1, §2

## CCCCCC/C(C=O)=C\c1ccccc1 [Hexylcinnamaldehyde, alpha]
[1]
  Activity (logarithmic partition parameter for substantivity on a skin model): −0.1250
[2]
  Activity (logarithmic partition parameter for substantivity on a skin model): −0.1399

## O=C(OCc1ccccc1)c1ccccc1O [Benzyl salicylate]
[1]
  Activity (logarithmic partition parameter for substantivity on a skin model): −0.1300
[2]
  Activity (logarithmic partition parameter for substantivity on a skin model): −0.1480

## CC1CCC(C(C)C)C(OC(=O)c2ccccc2N)C1 (centres unmarked) [Neo Heliopan ® MA, Menthyl anthranilate]
[1]
  Activity (logarithmic partition parameter for substantivity on a skin model): −0.1314
[2]
  Activity (logarithmic partition parameter for substantivity on a skin model): −0.2300

## CC(=O)/C=C/C1=C(C)CCCC1(C)C [Ionone, beta]
[2]
  Activity (logarithmic partition parameter for substantivity on a skin model): 0.1556

## CC(=O)/C=C/C1C(C)=CCCC1(C)C (stereo not drawn) [Ionone alpha]
[2]
  Activity (logarithmic partition parameter for substantivity on a skin model): −0.0120

## COc1ccc(C=CC(=O)OCCC(C)C)cc1 [Neo Heliopan ® E1000, Isoamyl p-Methoxycinnamate]
[1]
  Activity (logarithmic partition parameter for substantivity on a skin model): −0.0762
[2]
  Activity (logarithmic partition parameter for substantivity on a skin model): −0.2128

## CC(C=O)Cc1ccc(C(C)(C)C)cc1 (centres unmarked) [Lilial]
[1]
  Activity (logarithmic partition parameter for substantivity on a skin model): −0.1280
[2]
  Activity (logarithmic partition parameter for substantivity on a skin model): −0.2120

## CC1CC(OC(=O)c2ccccc2O)CC(C)(C)C1 (centres unmarked) [Neo Heliopan ® HMS, Homosalate]
[1]
  Activity (logarithmic partition parameter for substantivity on a skin model): −0.1571
[2]
  Activity (logarithmic partition parameter for substantivity on a skin model): −0.2733

## CC(=O)O[C@]1(C)CC[C@@]23C[C@@H]1C(C)(C)[C@@H]2CC[C@H]3C [Cedryl acetate]
[1]
  Activity (logarithmic partition parameter for substantivity on a skin model): −0.0330
[2]
  Activity (logarithmic partition parameter for substantivity on a skin model): −0.0170

## O=C1CCCCCCCCCCCC(=O)OCCO1 [Ethylene brassylate]
[1]
  Activity (logarithmic partition parameter for substantivity on a skin model): 0.0010
[2]
  Activity (logarithmic partition parameter for substantivity on a skin model): −0.0476

## COc1ccc(C(=O)c2ccccc2)c(O)c1 [Neo Heliopan ® BB, Benzophenone-3]
[1]
  Activity (logarithmic partition parameter for substantivity on a skin model): −0.1595
[2]
  Activity (logarithmic partition parameter for substantivity on a skin model): −0.2689

## CC(C)CCOC(=O)c1ccccc1O [Isoamyl salicylate]
[1]
  Activity (logarithmic partition parameter for substantivity on a skin model): −0.0960
[2]
  Activity (logarithmic partition parameter for substantivity on a skin model): −0.2740

## COc1ccc(C(=O)CC(=O)c2ccc(C(C)(C)C)cc2)cc1 [Neo Heliopan ® NH 357]
[1]
  Activity (logarithmic partition parameter for substantivity on a skin model): −0.1922
[2]
  Activity (logarithmic partition parameter for substantivity on a skin model): −0.1879

## Cc1ccc(C=C2C(=O)C3(C)CCC2C3(C)C)cc1 (centres unmarked) [Neo Heliopan ® MBC, 4-Methylbenzylidene Camphor]
[1]
  Activity (logarithmic partition parameter for substantivity on a skin model): −0.0966
[2]
  Activity (logarithmic partition parameter for substantivity on a skin model): −0.2018

## C=C1C2CCC(C2)C1(C)C (centres unmarked) [Camphene]
[2]
  Activity (logarithmic partition parameter for substantivity on a skin model): −0.2420

## CC1=CCC2CC1C2(C)C (stereo not drawn) [alpha-Pinene]
[2]
  Activity (logarithmic partition parameter for substantivity on a skin model): −0.2470

## C[C@@H]1CC[C@H]2C(C)(C)[C@H]3C[C@@]12CC[C@@]3(C)O [Cedrol]
[1]
  Activity (logarithmic partition parameter for substantivity on a skin model): −0.0320
[2]
  Activity (logarithmic partition parameter for substantivity on a skin model): −0.0111

## CCCCC(CC)COC(=O)c1ccccc1O (centres unmarked) [Neo Heliopan ® OS, 2-Ethylhexylsalicylate]
[1]
  Activity (logarithmic partition parameter for substantivity on a skin model): −0.1464
[2]
  Activity (logarithmic partition parameter for substantivity on a skin model): −0.2497
